Here are results for two compounds from patent EP4467141A1, “PYRAZOLO-QUINOLINES AS SELECTIVE INHIBITORS OF GENOTOXIC STRESS-INDUCED IKK/NF- KB PATHWAYS FOR CANCER THERAPY” (Max-Delbrück-Centrum für Molekulare Medizin in der …, priority 2023, dated 2024).

Common to all, as to assay: Kinase panel study
Common to all, as to assay type: biochemical
Details in all cases: read-out: Percentage of inhibition; for inhibition at 1 µM: 1000nM; for inhibition at 10 µM: 10000nM

Assay [1] concerns the target T1, SBK1 (Homo sapiens, UniProt Q52WX2).
T1 construct: purchased Thermo Fisher Scientific
The method, boiled down:
(§1)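 Outsourced panel screen. Format: ZLyte or Adapta, run per the manufacturer's procedures. Read-out: inhibition (%) at a single dose of 10 µM or 1 µM; IC50s also generated.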

Assay [2] has as its target T2, MAPK1 (ERK2) (Homo sapiens, UniProt P28482).
T2 construct: purchased Thermo Fisher Scientific
The essentials:
as §1

For assay [3], the target named is T3, RET S891A (Homo sapiens, UniProt P07949, S891A).
T3 construct: purchased Thermo Fisher Scientific
T3 sequence (P07949 29-1114 S891A): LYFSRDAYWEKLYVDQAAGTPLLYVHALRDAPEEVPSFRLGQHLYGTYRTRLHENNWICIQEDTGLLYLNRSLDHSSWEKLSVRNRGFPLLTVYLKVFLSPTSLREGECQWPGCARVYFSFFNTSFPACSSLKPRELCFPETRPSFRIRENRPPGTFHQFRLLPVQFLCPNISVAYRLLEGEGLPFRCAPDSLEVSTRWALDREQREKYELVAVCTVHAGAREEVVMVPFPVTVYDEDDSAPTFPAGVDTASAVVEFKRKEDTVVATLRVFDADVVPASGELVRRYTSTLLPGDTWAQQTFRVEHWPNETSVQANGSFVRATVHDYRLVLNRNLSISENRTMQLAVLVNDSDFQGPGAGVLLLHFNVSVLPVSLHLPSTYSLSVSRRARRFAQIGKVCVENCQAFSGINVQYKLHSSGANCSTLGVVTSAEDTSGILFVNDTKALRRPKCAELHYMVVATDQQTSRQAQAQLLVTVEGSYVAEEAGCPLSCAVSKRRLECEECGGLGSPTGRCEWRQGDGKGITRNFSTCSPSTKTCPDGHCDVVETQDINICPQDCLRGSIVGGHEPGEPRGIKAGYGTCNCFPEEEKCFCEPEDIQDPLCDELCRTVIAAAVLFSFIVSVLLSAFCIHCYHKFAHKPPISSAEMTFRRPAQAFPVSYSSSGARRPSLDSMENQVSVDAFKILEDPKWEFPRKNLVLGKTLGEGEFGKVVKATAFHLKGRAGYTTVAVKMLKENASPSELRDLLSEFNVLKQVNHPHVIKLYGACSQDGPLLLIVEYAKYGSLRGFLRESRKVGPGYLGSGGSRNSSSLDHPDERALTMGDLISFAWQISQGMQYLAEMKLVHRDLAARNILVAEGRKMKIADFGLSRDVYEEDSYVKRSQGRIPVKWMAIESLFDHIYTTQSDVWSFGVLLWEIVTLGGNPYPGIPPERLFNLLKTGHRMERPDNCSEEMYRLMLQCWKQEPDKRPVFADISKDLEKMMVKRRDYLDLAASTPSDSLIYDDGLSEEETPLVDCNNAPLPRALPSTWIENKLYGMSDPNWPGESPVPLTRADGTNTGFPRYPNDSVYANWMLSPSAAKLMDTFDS
The essentials:
as §1

Assay [4] addresses T4, ACVR1B (ALK4) (Homo sapiens, UniProt P36896).
T4 construct: purchased Thermo Fisher Scientific
T4 sequence (P36896 24-505): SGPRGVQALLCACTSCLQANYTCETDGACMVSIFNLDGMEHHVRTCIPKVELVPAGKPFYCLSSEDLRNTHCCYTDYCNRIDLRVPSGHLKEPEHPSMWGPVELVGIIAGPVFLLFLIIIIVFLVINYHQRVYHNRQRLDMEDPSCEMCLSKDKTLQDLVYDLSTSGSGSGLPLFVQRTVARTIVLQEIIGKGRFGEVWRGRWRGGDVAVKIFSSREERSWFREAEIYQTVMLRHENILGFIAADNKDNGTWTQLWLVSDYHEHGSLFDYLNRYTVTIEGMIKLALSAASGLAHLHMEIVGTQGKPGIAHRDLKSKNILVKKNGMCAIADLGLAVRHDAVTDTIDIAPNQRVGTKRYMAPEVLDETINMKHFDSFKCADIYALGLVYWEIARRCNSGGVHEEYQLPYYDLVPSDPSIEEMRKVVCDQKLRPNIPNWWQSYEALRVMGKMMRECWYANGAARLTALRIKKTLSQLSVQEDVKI
The method, boiled down: as §1

The target of assay [5] is T5, EPHB3 (Homo sapiens, UniProt P54753).
T5 construct: purchased Thermo Fisher Scientific
T5 sequence (P54753 34-998): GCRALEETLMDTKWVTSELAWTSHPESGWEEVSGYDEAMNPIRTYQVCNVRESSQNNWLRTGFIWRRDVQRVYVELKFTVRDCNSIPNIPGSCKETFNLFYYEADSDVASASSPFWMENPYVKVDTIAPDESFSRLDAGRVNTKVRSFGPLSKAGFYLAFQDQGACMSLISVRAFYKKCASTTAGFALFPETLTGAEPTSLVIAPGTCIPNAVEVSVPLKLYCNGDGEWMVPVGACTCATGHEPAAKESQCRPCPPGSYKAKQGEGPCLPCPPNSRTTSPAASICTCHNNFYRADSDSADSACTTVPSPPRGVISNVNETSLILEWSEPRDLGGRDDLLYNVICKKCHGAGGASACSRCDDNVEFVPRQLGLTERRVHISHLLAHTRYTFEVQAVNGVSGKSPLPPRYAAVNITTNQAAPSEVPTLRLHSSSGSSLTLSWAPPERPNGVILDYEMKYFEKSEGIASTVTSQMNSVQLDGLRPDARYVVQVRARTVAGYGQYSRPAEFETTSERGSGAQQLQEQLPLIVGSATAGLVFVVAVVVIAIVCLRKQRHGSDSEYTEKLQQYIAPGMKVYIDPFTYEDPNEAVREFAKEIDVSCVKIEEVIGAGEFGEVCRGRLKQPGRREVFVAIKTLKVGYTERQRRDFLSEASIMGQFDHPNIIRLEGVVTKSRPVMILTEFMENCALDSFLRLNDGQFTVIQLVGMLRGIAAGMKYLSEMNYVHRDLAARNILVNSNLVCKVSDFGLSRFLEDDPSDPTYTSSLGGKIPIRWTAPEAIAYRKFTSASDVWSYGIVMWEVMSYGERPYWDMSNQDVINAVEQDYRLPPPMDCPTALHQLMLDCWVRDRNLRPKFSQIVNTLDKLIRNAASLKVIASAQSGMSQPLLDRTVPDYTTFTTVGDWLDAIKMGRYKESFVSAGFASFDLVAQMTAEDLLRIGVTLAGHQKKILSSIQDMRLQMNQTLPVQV
The method, boiled down:
as §1

Assay [6] addresses T6, MARK2 (Homo sapiens, UniProt Q7KZI7).
T6 construct: purchased Thermo Fisher Scientific
The method, boiled down: as §1

The target of assay [7] is T7, STK22D (TSSK1) (Homo sapiens, UniProt Q9BXA7).
T7 construct: purchased Thermo Fisher Scientific
T7 sequence (Q9BXA7 1-367): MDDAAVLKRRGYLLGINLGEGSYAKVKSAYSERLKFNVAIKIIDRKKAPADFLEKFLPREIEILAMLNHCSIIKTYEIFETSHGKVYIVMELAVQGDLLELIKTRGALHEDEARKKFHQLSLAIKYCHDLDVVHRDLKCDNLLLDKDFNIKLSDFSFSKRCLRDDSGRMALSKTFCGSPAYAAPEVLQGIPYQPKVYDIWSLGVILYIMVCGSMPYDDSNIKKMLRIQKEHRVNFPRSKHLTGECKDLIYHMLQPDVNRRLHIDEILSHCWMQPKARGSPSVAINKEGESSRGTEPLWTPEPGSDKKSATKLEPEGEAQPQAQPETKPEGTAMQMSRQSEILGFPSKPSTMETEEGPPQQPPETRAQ
The method, boiled down: as §1

T2 sequence (P28482 whole entry): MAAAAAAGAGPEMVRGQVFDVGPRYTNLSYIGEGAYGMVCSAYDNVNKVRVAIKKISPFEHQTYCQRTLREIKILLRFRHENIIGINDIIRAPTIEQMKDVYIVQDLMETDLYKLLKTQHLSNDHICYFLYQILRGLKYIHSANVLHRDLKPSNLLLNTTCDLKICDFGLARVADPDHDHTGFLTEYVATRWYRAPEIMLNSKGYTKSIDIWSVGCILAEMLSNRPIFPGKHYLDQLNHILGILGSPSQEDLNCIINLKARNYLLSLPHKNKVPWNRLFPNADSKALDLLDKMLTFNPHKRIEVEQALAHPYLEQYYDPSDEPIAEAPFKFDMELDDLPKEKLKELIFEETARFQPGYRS
T1 sequence (Q52WX2 whole entry): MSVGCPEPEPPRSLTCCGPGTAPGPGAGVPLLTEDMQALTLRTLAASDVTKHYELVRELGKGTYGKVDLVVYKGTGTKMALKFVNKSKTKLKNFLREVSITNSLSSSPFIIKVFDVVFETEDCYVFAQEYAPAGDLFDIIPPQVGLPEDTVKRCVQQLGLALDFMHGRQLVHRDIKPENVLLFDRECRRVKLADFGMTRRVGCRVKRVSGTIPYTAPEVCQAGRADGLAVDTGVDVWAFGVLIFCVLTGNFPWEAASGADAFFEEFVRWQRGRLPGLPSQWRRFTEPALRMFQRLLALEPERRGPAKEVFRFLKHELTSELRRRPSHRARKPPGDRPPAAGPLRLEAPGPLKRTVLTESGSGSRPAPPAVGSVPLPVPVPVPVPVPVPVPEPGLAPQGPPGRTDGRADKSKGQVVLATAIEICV
T6 sequence (Q7KZI7 whole entry): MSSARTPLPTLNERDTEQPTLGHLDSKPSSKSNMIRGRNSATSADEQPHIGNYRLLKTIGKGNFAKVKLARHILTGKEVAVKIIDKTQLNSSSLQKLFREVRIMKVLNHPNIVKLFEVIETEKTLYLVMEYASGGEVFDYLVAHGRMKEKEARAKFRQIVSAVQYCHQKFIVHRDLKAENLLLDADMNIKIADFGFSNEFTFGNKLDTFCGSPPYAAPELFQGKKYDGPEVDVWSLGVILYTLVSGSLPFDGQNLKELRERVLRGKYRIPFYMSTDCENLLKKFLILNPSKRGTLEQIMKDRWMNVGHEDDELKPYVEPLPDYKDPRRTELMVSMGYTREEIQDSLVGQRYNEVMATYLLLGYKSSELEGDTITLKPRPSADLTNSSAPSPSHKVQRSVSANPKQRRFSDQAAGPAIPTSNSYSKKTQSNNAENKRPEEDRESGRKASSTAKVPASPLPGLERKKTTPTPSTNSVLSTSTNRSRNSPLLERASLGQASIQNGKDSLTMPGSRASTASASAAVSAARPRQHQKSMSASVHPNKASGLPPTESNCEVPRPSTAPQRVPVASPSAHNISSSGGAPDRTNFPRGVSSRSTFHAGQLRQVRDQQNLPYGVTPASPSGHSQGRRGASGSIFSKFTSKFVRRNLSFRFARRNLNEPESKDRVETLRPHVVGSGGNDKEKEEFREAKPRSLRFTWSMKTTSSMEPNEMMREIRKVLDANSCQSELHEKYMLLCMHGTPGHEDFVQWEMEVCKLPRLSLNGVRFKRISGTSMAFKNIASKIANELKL

With `COc1ccc2c(c1OC)c(=O)n1c3ccc(O)cc3c3ccnc2c31` [MW01, 5-Hydroxy-10,11-dimethoxy-9H-benzo[c]indolo[3,2,1-ij][1,5]naphthyridin-9-one], the inhibition at 1 µM in assay [1] is 3%; in assay [2], 4%; in assay [3] it was -3%; in assay [4] it was -9%; in assay [5], 1%; in assay [6] it was 10%. The inhibition at 1 µM in assay [7] turned out to be 11%. Besides, the inhibition at 10 µM in assay [1] was 3%; in assay [2] it was 9%; in assay [3] it was 30%; in assay [4], -3%; in assay [5], 11%; in assay [6] it was 5%. The inhibition at 10 µM in assay [7] was determined as 22%.
For the compound `COc1ccc2cc3c(N)nn(C(=O)c4cccc(N(C)C)c4)c3nc2c1` [MW05, (3-Amino-7-methoxypyrazolo[3,4-b]quinolin-1-yl)-[3-(dimethylamino)phenyl]methanone], the inhibition at 1 µM was -7% in assay [1]; 5% in assay [2]; -15% in assay [3]; 1% in assay [4]; 6% in assay [5]; 3% in assay [6]. Moreover, the inhibition at 1 µM in assay [7] came to 2%. Moreover, the inhibition at 10 µM in assay [1] was -26%; in assay [2], 7%; in assay [3], -18%; in assay [4] it was -8%; in assay [5], 5%; in assay [6], 5%. For the same compound, the inhibition at 10 µM in assay [7] came to 5%.

As usually defined, the inhibition is the drop in the measured response relative to a control, in per cent.
